Patent US11275078B2, “Method and system for sensing” (Ramot at Tel-Aviv University Ltd., priority 2015, dated 2022)

Assays:
Type in all cases: cell-based, Human
[1] = tested on: Jurkat cells; assay: Extracellular lactate level of 2DG-treated Jurkat cells (lactate oxidase, nanowire biosensor); conditions: after 24 hours
Method: For lactate sensing, 0.1 unit/ml of lactate oxidase (LOX; L0638, SIGMA) was added in phenol red-free medium to convert lactate to pyruvate and H2O2 before lactate reaches the FET array (as depicted in FIG. 1D).
During experiments, cells were re-suspended in phenol red-free medium (11835-063, GIBCO) in the presence or absence of a drug, either methotrexate hydrate (MTX; M8407, SIGMA) or 2-deoxy-D-glucose (2DG; D6134, SIGMA), at a density of 1×10^6 cells/ml.
The correlation between extracellular lactate level of 2DG-treated Jurkat cells and a resultant cell proliferation rate after 24 hours was investigated.

[2] = tested on: Jurkat cells; assay: 24-hour monitoring of extracellular ROS levels of drug-treated Jurkat cells using the nanowire biosensor; conditions: t=6 hours, normalized by number of live cells
Method: For measurements of cellular metabolites/activity, cells were cultured in the chip, namely, in the culture compartment thereof (see, for example, FIG. 1A), while placing the chip in an incubator during measurements. A sample was introduced to the sensing compartment at 20 μl min^-1 by using a syringe pump. Human T lymphocytes, Jurkat (TIB-152, ATCC), were cultured and incubated at 37° C. under a humidified 5% CO2 atmosphere. The culture medium used was RPMI 1640 medium (52400, GIBCO) with 10% fetal bovine serum (FBS; 04-001-1A, Biological Industry) and 1% penicillin/streptomycin (15140, GIBCO). During experiments, cells were re-suspended in phenol red-free medium (11835-063, GIBCO) in the presence or absence of a drug, either methotrexate hydrate (MTX; […], SIGMA) or 2-deoxy-D-glucose (2DG; […], SIGMA), at a density of 1×10^6 cells/ml. Cellular samples were dispensed into the wells of the sensing chip (see FIGS. 1A and 1B) in an incubator. 24-hour monitoring of metabolic activity of drug-treated Jurkat cells by measuring extracellular ROS levels using the nanowire biosensor, was performed and the obtained data is presented in FIGS. 6A-G. Measured ROS levels were normalized by the number of live cells.

[3] = tested on: Jurkat cells; assay: pH sensing of drug-treated Jurkat cells (reductant-added medium, nanowire FET); conditions: 24-hour monitoring, culture medium
Description: A conversion of the modified FET into a pH sensor was achieved by using a reductant-added solution. After supplementing a culture medium with 0.1% v/v DEHA to reduce the modified FET surface, surface proton density varied by protonation or by deprotonation dominantly changes the measured current.
For pH sensing, 0.1% v/v DEHA was supplemented in the sensing medium to reduce the 9,10-anthraquinone monolayer on the FET surface to obtain 9,10-dihydroxyanthracene (see also FIG. 1d) and H2O2 simultaneously. Therefore, no significant amount of H2O2 in a DEHA-supplemented medium altered a measured signal. As a result, surface proton density, varied by protonation or by deprotonation, dominantly changes an acquired signal.

[4] = tested on: Jurkat cells; assay: Cell proliferation rate / viability of drug-treated Jurkat cells (trypan blue, hemocytometer); conditions: for cell viability: 24-hour viability observation
Method: Human T lymphocytes, Jurkat (TIB-152, ATCC), were cultured and incubated at 37° C. under a humidified 5% CO2 atmosphere. The culture medium used was RPMI 1640 medium (52400, GIBCO) with 10% fetal bovine serum (FBS; 04-001-1A, Biological Industry) and 1% penicillin/streptomycin (15140, GIBCO). During experiments, cells were re-suspended in phenol red-free medium (11835-063, GIBCO) in the presence or absence of a drug, either methotrexate hydrate (MTX; […], SIGMA) or 2-deoxy-D-glucose (2DG; […], SIGMA), at a density of 1×10^6 cells/ml. Cell viability was estimated by using a hemocytometer to count trypan blue-stained cells. Relative cell count, presented in FIGS. 6B and 6E-6F, is a ratio of the cell count at t=24 hours to the initial cell count.

Row | SMILES | cellular lactate secretion [1] | ROS level [2] | pH of treated cells versus control [3] | cell viability [4] | cell proliferation rate ([4]; after 24 hours, relative cell count = count at t=24 hours / initial count)
1 | O=CC[C@@H](O)[C@H](O)[C@H](O)CO [2DG, 2-deoxy-D-glucose] | decreased | noticeable decrease | more basic than the control | anti-proliferative activity | reduced
2 | CN(Cc1cnc2nc(N)nc(N)c2n1)c1ccc(C(=O)N[C@@H](CCC(=O)O)C(=O)O)cc1 [MTX, methotrexate hydrate] |  | noticeable decrease |  | anti-proliferative activity | 
